Antibacterial efficacy and cell migration data for three compounds are collected here from patent publication US20260053836A1, “CHRONIC WOUND HEALING COMPOSITION AND APPLICATION THEREOF” (priority 2019, published 2026).

One test deals with Staphylococcus aureus. The conditions noted are these: Guillermo et al., 1999; cited from earlier work.
Another test has as its system HaCaT cells. Kind of test: Cell migration assay of HaCaT cells in high glucose culture. In kind it is cell-based, human. The note with it: high glucose (25 mM), 48 hours, control group taken as 1. As for the experimental part: Human dermal fibroblasts (HDF cells) or human keratinocytes (HuCaT cells) were cultured in a humid incubator at 37° C. in an environment of 5% carbon dioxide and […] and placed in Dulbecco's modified Eagle's medium (DMEM) supplemented with glucose, 10% fetal bovine serum, 100 IU/mL penicillin, 100 μg/mL streptomycin, 2 mM sodium pyruvate and 1% nonessential amino acids (NEAA). The medium was changed every two days. For subculture, cells were harvested and re-cultured at a 1:10 dilution after exposure to 0.1% Trypsin-EDTA mixture. The cells used in the study ranged from 12 to 40 passages. 24 hours before drug treatment, cells were seeded and left for 24 hours. The control group was maintained in the medium and […]. Under this culture condition, cell growth and differentiation are not affected.
HaCaT cells were cultured at 1×10^5 with addition of 25 mM glucose in a 24-well culture dish for 48 hours, and the following drugs were added to observe the cell migration state: • Con: the control group; • BO 18.8 μM+A 16.0 μM; • BSG 14.2 μM+A 16.0 μM; • BO 18.8 μM+BSG 14.2 μM; • All: A 16.0 μM+BO 18.8 μM+BSG 14.2 μM.

Consider `C[C@@H]1O[C@@H](O[C@@H]2[C@@H](O)[C@H](OCCc3ccc(O)c(O)c3)O[C@H](CO)[C@H]2OC(=O)/C=C/c2ccc(O)c(O)c2)[C@H](O)[C@H](O)[C@H]1O` [Acteosides, Acteoside], for which the antibacterial efficacy entry in the test with Staphylococcus aureus is “good antibacterial efficacy”.
For the compound `CC1(C)C2CCC1(C)C(O)C2` (stereo not drawn) [BO, Borneal], the cell migration entry in the test on HaCaT cells is recorded as “no promoting effect”.
The same measure, in the same setting: next, `O=C(O)c1cc(O)c2c(c1)[O][Bi]([OH])[O]2` [BSG, Bismuth subgallate]: “no promoting effect”.
